This passage reports AC50 results from PubChem BioAssay AID463204 (Broad Institute, 2010).

Calls of active or inactive are those of the source.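 The calls were made as follows: active = AC50 no more than ten times the top concentration tested, that is within one log above it; inconclusive = flat curve fit with activity between 30% and 70%, or invalid poor fit; inactive = AC50 beyond ten times the top tested dose.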 A value given as a limit tells only on which side of the number the result lay.

The subject of the assay is S. cerevisiae Mot1-301 ts growth rescue, BacTiter-Glo ATP luminescence. Briefly: growth rescue of Mot1-301 ts yeast, confirmation, SUMOylation pathway inhibitor project, whole organism, S. cerevisiae, Mot1-301 ts mutant, luminescence, dose retest (AID 463204).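 Also: growth at restrictive 38.5 degrees C of Mot1-301 OY566 strain; actives raise luminescence by restoring growth of the ts mutant at high temperature.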

What is called AC50 is the midpoint of the concentration-response curve, whichever way the signal moves. On to `O=C(Oc1ccccc1N1C(=O)C2CC=CCC2C1=O)c1ccc(Br)cc1` (centres undefined), for which the AC50 is > 42 µM (inactive).

Consider `Cc1sc2ncnc(N3CCC(C(=O)NNC(=O)COc4ccccc4F)CC3)c2c1C`, for which the AC50 was > 42 µM (inactive).

As for `Cc1ccccc1NC(=O)COC(=O)C1C2CC3OC(=O)C1C3C2` (centres undefined), the AC50 is > 42 µM (inactive).

As to `CC(C)C(OC(=O)CN1C(=O)COc2ccccc21)C(=O)NC1CCCC1` (centres undefined), the AC50 was > 42 µM (inactive).

In the case of `CCN1C(=O)c2cccc3c(S(=O)(=O)Nc4ccc(OC)cc4OC)ccc1c23`, the AC50 is > 42 µM (inactive).

As for `CN(C)C1(c2nnnn2-c2ccc(Cl)cc2)CCCCC1`, the AC50 was 27.9 µM.

On to `O=C1C2CC=C(Cl)CC2C(=O)N1c1ncn[nH]1` (centres undefined), for which the AC50 is > 42 µM (inactive).

On to `CC(=O)c1ccc2noc(-c3ccc(F)cc3)c2c1`, for which the AC50 was > 42 µM (inactive).

As to `CCC(C(=O)Nc1cccnc1)c1ccccc1` (centres undefined), the AC50 is > 42 µM (inactive).

For `Cc1cc(-c2ccc(Cl)cc2Cl)c(C#N)c(=O)[nH]1`, the AC50 was > 42 µM (inactive).

With `N#CC1=C(N)Oc2c(ccc3ccccc23)C1c1cccs1` (centres undefined), the AC50 was > 42 µM (inactive).

Take `S=C(c1ccc(N2CCOCC2)cc1)N1CCCCC1`: the AC50 is > 42 µM (inactive).

For the compound `CC(=O)N1c2ccc([N+](=O)[O-])cc2NC(=O)CC1C` (centres undefined), the AC50 is > 42 µM (inactive).

Consider `CCOC(=O)N1CCN(C(=O)c2ccccc2-c2ccccc2)CC1`, for which the AC50 is > 42 µM (inactive).

As for `CCN(CC)CCCn1c(=S)[nH]c2ccc(Cl)cc2c1=O`, the AC50 is > 42 µM (inactive).

Regarding `CCCNC(=O)CN(c1ccc(F)cc1)S(=O)(=O)c1ccc2c(c1)OCCO2`, the AC50 was > 42 µM (inactive).

With `Cc1ccc(C(=O)NCC(=O)Nc2ccc3c(c2)OCCO3)cc1`, the AC50 is > 21 µM (inactive).

On to `COc1c2ccoc2nc2c(OC)c(OC[C@@H](O)C(C)(C)O)ccc12`, for which the AC50 was > 42 µM (inactive).

Take `CCOc1cc(NC(=O)c2cccs2)c(OCC)cc1NC(=O)CCC(=O)NCCN1CCOCC1`: the AC50 is > 42 µM (inactive).

Take `O=C(C1CCN(C2CC(=O)N(c3cccc(Cl)c3)C2=O)CC1)N1CCCC1` (centres undefined): the AC50 is 7.84 µM.

Take `CCCCn1c2nc3ccccc3nc2c2c(=O)n(CCC)cnc21`: the AC50 is > 42 µM (inactive).

For the compound `Nc1ccc(S(=O)(=O)NNC(=O)C(=O)NNc2ccccc2)cc1`, the AC50 was > 42 µM (inactive).

For `Cc1cc(C)c(S(=O)(=O)c2cccc(C)c2C)c(=O)[nH]1`, the AC50 is > 42 µM (inactive).

On to `O=C(OCc1nc2ccsc2c(=O)[nH]1)c1ccco1`, for which the AC50 is > 42 µM (inactive).

With `CCCc1nnc(NC(=O)c2cn(CC)c3cc(N4CCN(C)CC4)c(F)cc3c2=O)s1`, the AC50 is > 21 µM (inactive).

As to `COc1ccc(NC(=O)Nc2ccc(OC)cc2)cc1`, the AC50 is > 42 µM (inactive).

Turning to `CCOC(=O)c1ccc(NC(=S)NCCCN2CCOCC2)cc1`, the AC50 was > 110 µM (inactive).

Consider `COc1ccc(CCNC(=O)c2cc(-c3ccco3)on2)cc1OC`, for which the AC50 was > 42 µM (inactive).

`O=C(CCNS(=O)(=O)c1cccc2nsnc12)NCCC1=CCCCC1`: the AC50 was > 42 µM (inactive).

Take `CCC(=O)N(Cc1ccc2c(c1)OCO2)Cc1cc2cc(OC)ccc2[nH]c1=O`: the AC50 was > 42 µM (inactive).

Consider `CCOC(=O)C1C(=O)NC(SCC(=O)Nc2nccs2)=C(C#N)C1c1ccccc1OCC` (centres undefined), for which the AC50 is > 42 µM (inactive).

In the case of `Cc1c(C)c2c(c(C)c1O)CCC(C)(C(=O)O)O2` (centres undefined), the AC50 is > 42 µM (inactive).

As to `COCCNC(=O)C(c1ccc(C)cc1)N(C(=O)CCC(=O)Nc1ccccn1)c1cccc(C)c1` (centres undefined), the AC50 is > 42 µM (inactive).

For `CC1(C)Cc2c(cnn2-c2ccc(F)cc2)C(NC(=O)CCCN2CCCCC2=O)C1` (centres undefined), the AC50 was > 42 µM (inactive).

As to `Cc1ccc(C)c(OCCCC(=O)N2CCOCC2)c1`, the AC50 was > 42 µM (inactive).

On to `COc1cc2c(cc1OC)C(c1ccc(SC)cc1)CC(=O)N2` (centres undefined), for which the AC50 was > 42 µM (inactive).

With `COc1cc(C(=O)OCC(=O)NCc2ccccc2)cc(NC(=O)c2ccco2)c1OC`, the AC50 is > 42 µM (inactive).

On to `COCCn1c(=O)[nH]c(=O)c2cc(C(=O)c3cc(Cl)ccc3O)cnc21`, for which the AC50 was > 42 µM (inactive).

On to `O=C(N/N=C\c1cn(-c2ccccc2)nc1-c1ccccc1)c1ccc(Br)o1`, for which the AC50 is > 42 µM (inactive).

In the case of `CC1c2cc3c(cc2CCN1CC(=O)Nc1ccccc1)OCCCO3` (centres undefined), the AC50 was > 42 µM (inactive).

Regarding `O=C(Nc1nccs1)c1ccc(S(=O)(=O)c2ccccc2)cc1`, the AC50 is > 42 µM (inactive).

On to `CN(Cc1ccc(C(C)(C)C)cc1)C(=O)c1ccc2c(=O)n3c(nc2c1)CCC3`, for which the AC50 is > 42 µM (inactive).

`N=c1c[n+](C2CCCCC2)[n-]o1`: the AC50 is > 42 µM (inactive).

Consider `Cc1ccc(CNC(=O)c2ccc(N3CCC4(CC3)CC(c3ccccc3)=NO4)c(NC(=O)c3cccc(C)c3)c2)cc1`, for which the AC50 is > 42 µM (inactive).

In the case of `Cc1cccc(N=C2C(=O)Nc3c(Cl)cccc32)c1`, the AC50 is > 42 µM (inactive).

In the case of `COc1ccc2c(c1)[C@H]1[C@H](CO2)[C@H](c2ccccc2)[C@]2(C)C(=O)Nc3cc(C)ccc3C(=O)N12`, the AC50 is 5.3 µM.

Turning to `CCOc1ccc(-c2c(C(=O)N/N=C/c3ccncc3)nnn2-c2nonc2N)cc1`, the AC50 was > 42 µM (inactive).

`CCOc1ccccc1/C=N\Nc1cnn(Cc2ccccc2)c(=O)c1Cl`: the AC50 is > 42 µM (inactive).

Take `COc1cccc(NC(=S)NC(=O)c2cncc(Br)c2)c1`: the AC50 is > 42 µM (inactive).

Regarding `O=C(c1ccc([N+](=O)[O-])cc1)N1CCN(c2ncc(Br)cn2)CC1`, the AC50 is > 42 µM (inactive).

`O=C(Nc1ncccn1)c1ccc(C(F)(F)F)cc1`: the AC50 was > 42 µM (inactive).

`COc1ccc(OCC(O)CN2C(=O)NC(C)(C)C2=O)cc1` (centres undefined): the AC50 is > 42 µM (inactive).

In the case of `CCCNc1nc2ccccc2c(=O)[nH]1`, the AC50 is > 42 µM (inactive).

Consider `CC(C)c1cc(C(=O)N/N=C/C(Br)=C/c2ccccc2)n[nH]1`, for which the AC50 was 6.05 µM.

With `O=Nc1c(-c2cccc([N+](=O)[O-])c2)nc2ncccn12`, the AC50 was 4.09 µM.

Consider `O=C(CCCNC(=O)/C(=C/c1ccccc1F)NC(=O)c1ccccc1)OCc1ccccc1`, for which the AC50 was > 42 µM (inactive).

Consider `CNS(=O)(=O)c1cccc(C(=O)OCC(=O)Nc2ccc(OC)cc2[N+](=O)[O-])c1`, for which the AC50 was > 42 µM (inactive).

As to `CCOc1ccc(CCN2CN(C3CCCCC3)CNC2=S)cc1OCC`, the AC50 was > 42 µM (inactive).

As for `N#CC(CC(=O)c1ccc(F)cc1)c1ccc2c(c1)OCO2` (centres undefined), the AC50 was 40.2 µM.

Consider `Cc1cc(CNC(=O)C2CCC(=O)N(Cc3ccccc3F)C2)on1` (centres undefined), for which the AC50 is > 42 µM (inactive).

With `CC12CCC(=O)N1C(C(=O)Nc1ccccc1F)CS2` (centres undefined), the AC50 is > 42 µM (inactive).

For the compound `CCOC(=O)Nc1sc(=S)n(C)c1C`, the AC50 was > 42 µM (inactive).

Take `COc1ccccc1N1CCN(C(=O)c2ccc(N3CCCCS3(=O)=O)cc2)CC1`: the AC50 is > 42 µM (inactive).

Regarding `COc1ccc(N2CCN(C3CCCN(Cc4cccc(OC)c4)C3)CC2)cc1` (centres undefined), the AC50 was > 42 µM (inactive).

Take `CCNC(=O)/C(C#N)=C/c1c(N2CCCCCC2)nc2ccccn2c1=O`: the AC50 is > 42 µM (inactive).

For the compound `CCOC(=O)c1ccccc1NC(=O)C1CC(=O)N(C2CCCCC2)C1` (centres undefined), the AC50 was > 42 µM (inactive).

As for `COc1ccccc1-n1c(O)c(/C=C2\C=Nc3ccccc32)c(=O)[nH]c1=O`, the AC50 was > 42 µM (inactive).

As for `CCc1nccn1S(=O)(=O)c1cc(OC)ccc1OC`, the AC50 is > 42 µM (inactive).

Take `C/C=C/C(=O)OCC(=O)Nc1nc2ccc(C)cc2s1`: the AC50 is > 42 µM (inactive).

Take `COc1cc(CN2CCNC(=O)C2CC(=O)NCCc2ncccc2C)cc(OC)c1` (centres undefined): the AC50 is > 42 µM (inactive).

On to `O=c1nc2ccc(Cl)cn2c2ccc(S(=O)(=O)N3CCOCC3)cc12`, for which the AC50 was > 42 µM (inactive).

As for `Cc1nn(Cc2ccc(C(=O)Nc3ccccc3C(F)(F)F)o2)c(C)c1Br`, the AC50 is > 42 µM (inactive).

Turning to `Cc1cc(C)c(OCC(=O)N/N=C/c2ccco2)c(C)c1`, the AC50 is > 42 µM (inactive).

With `CN1CCN(CC(=O)N2c3ccccc3C(=O)Nc3cccnc32)CC1`, the AC50 was > 42 µM (inactive).

Turning to `CC1(C)CCC(=O)N2CC[C@H]3C[C@H](OC(=O)Nc4ccc(Br)cc4)C[C@@H]1[C@H]32`, the AC50 was > 42 µM (inactive).

On to `O=C(N/N=C/C(Br)=C/c1ccccc1)c1cccnc1`, for which the AC50 is 21.5 µM.

`CCN(C(=S)NCCOC)c1cccc2ccccc12`: the AC50 was > 42 µM (inactive).

As for `O=C(CNC(=O)c1ccco1)OCC(=O)c1cccc2ccccc12`, the AC50 is > 42 µM (inactive).

On to `CCN(C(=O)Nc1ccccc1OC)c1c(N)n(Cc2ccccc2)c(=O)[nH]c1=O`, for which the AC50 was > 42 µM (inactive).

As for `CC1=C/C(=N\OS(=O)(=O)c2ccccc2)C(C(C)C)=CC1=O`, the AC50 is 0.86 µM.

As to `Cc1ccc(NC(=O)COC(=O)c2csc3c2CCC(C)C3)cc1S(=O)(=O)N1CCCCC1` (centres undefined), the AC50 is > 42 µM (inactive).

Turning to `O=C(COC(=O)c1cc([N+](=O)[O-])ccc1N1CCOCC1)Nc1cccc(F)c1`, the AC50 is > 42 µM (inactive).

For the compound `COCCNC(=O)C(=O)NCC1OCCN1C(=O)c1ccc(Cl)cc1` (centres undefined), the AC50 is > 42 µM (inactive).

With `CC1C(=O)CC(c2ccccc2)N(C)C1c1ccccc1` (centres undefined), the AC50 is 33.7 µM.

As for `CCCOc1ccccc1C1NC(=O)NC(C)=C1C(=O)OCc1ccccc1` (centres undefined), the AC50 was > 42 µM (inactive).

As for `Cc1ccc(S(=O)(=O)N2[C@@H](c3ccccc3)C(C(=O)O)=CC[C@H]2c2ccc(Cl)cc2)cc1`, the AC50 is 8.57 µM.

Turning to `CCOC(=O)c1ccc(CNC(=O)C2CCCCC2C(=O)OCC(F)(F)F)o1` (centres undefined), the AC50 is > 42 µM (inactive).

Consider `Oc1c(Br)cc(Br)cc1/C=N/n1c(-c2ccccc2)n[nH]c1=S`, for which the AC50 was 26.2 µM.

Consider `COC(=O)c1ccc(NC(=O)CCN2CCN(c3ccccc3)CC2)cc1`, for which the AC50 is > 42 µM (inactive).
